# Columns and labels:
# [1] = biological target: HDAC1 (Homo sapiens, UniProt Q13547); test: In vitro HDAC activity assay (Reaction Biology); assay type: biochemical; conditions: cell-free; symbol; read-out: IC50 values of HDAC8 inhibitors, HDAC1
# [2] = biological target: HDAC3 (Homo sapiens, UniProt O15379); test: In vitro HDAC activity assay (Reaction Biology); assay type: biochemical; conditions: cell-free; read-out: IC50 values of HDAC8 inhibitors, HDAC3
# Description: (§1) Peptide substrate was conjugated with AMC. […] The HDAC reaction was performed at 30 °C for 2 h before adding the developer reagent. The free AMC was detected with excitation of 360 nm and emission 460 nm at kinetic mode for 90 min. IC50 values were calculated with GraphPad Prism version 3.0a (GraphPad Software Inc., San Diego, CA, USA).
# [3] = biological target: T1, HDAC7 (Homo sapiens, UniProt Q8WUI4); test: In vitro HDAC activity assay (Reaction Biology); assay type: biochemical; conditions: cell-free; read-out: IC50 values of HDAC8 inhibitors, HDAC7
# T1 sequence (Q8WUI4 512-865 limits assumed): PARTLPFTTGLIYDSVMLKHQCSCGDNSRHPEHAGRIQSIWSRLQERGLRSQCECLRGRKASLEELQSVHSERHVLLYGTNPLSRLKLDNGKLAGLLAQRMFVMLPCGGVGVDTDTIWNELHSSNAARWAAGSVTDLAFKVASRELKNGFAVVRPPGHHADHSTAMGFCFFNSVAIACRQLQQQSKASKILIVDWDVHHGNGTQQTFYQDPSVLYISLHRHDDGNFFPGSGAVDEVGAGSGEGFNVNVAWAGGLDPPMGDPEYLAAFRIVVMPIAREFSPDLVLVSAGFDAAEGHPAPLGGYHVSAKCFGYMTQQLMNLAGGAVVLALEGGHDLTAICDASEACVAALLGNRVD
# Description: as §1
# [4] = Determination of MTD and dose-limiting toxicities; conditions: NMRI Foxn1 nude, mouse, in vivo, ip
# Description: (§2) Each dose was tested in a cohort of three animals. Resulting MTDs were validated within cohorts of eight animals for each inhibitor. […] As a reference, the blood of 12 untreated NMRI Foxn1 nude mice was analyzed. […] Vorinostat was used as a control for unselective HDAC inhibition.
# (§3) DLTs were monitored by observation of general condition and determination of body weight. We used several criteria for objectively measuring DLT. These included a decrease in body weight of ≥20% compared with baseline body weight, blood analysis of standard parameters for clinical chemistry and hematology (central laboratory of University Hospital Heidelberg, Heidelberg, Germany) and organ histopathology (formalin-fixed, paraffin-embedded organs), by H&E stain for the detection of necrosis (Prof. Dr. AD Gruber, Institute for Veterinary Pathology, Berlin, Germany).
# [5] = test system: NMRI Foxn1 nude mice; test: Determination of MTD and dose-limiting toxicities
# Description: as §2, §3
# [6] = test system: NMRI Foxn1 nude mice; test: Blood parameters (clinical chemistry, hematology) at MTD; assay type: in vivo; conditions: n=8, mean ±S.D.
# Description: as §2, §3
# [7] = Determination of inhibitor plasma half-life; assay type: in vivo, mouse
# [8] = test system: neuroblastoma cell culture; test: Intracellular whole lysine acetylation via FACS; assay type: cell-based, human
# Description: Cells were collected, washed with PBS and fixed with 2% paraformaldehyde for 15 min at room temperature (RT). Cells were permeabilized by incubation with 50 μg/ml digitonin for 6 min at RT. Cells were incubated with primary antibody overnight at 4 °C. After staining with Cy3-conjugated anti-rabbit antibody, cells were analyzed by FACS using CellQuest software (BD Biosciences, San Jose, CA, USA). The following primary antibodies were used: anti-acetylated lysine (polyclonal; Cell Signaling) and anti-neurofilament-M (clone EP2460; Epitomics, Burlingame, CA, USA).
# [9] = test system: PBMCs; test: Whole lysine acetylation in PBMC after intraperitoneal administration (FACS); assay type: in vivo, mouse; conditions: 50 mg/kg/d intraperitoneal; solvent 32.1
# Description: Both inhibitors were intraperitoneally injected into NMRI Foxn1 nude mice in increasing doses from 40 up to 400 mg/kg per day for 2 × 5 days. Each dose was tested in a cohort of three animals. Resulting MTDs were validated within cohorts of eight animals for each inhibitor. […] As a reference, the blood of 12 untreated NMRI Foxn1 nude mice was analyzed. […] Vorinostat was used as a control for unselective HDAC inhibition.
# [10] = test system: BE(2)-C cells; test: Western blot of histone 4, α-tubulin and SMC3 acetylation; assay type: cell-based, human
# Description: Western blot analysis was performed as described previously.[15] For detection of phosphoproteins, PhosStop (Roche, Penzberg, Germany) was added to the lysis buffer.
# [11] = test system: PBMC; test: Western blot of histone 4 and α-tubulin acetylation in PBMC of treated mice; assay type: in vivo, mouse; conditions: MTD concentrations, 2 h after intraperitoneal injection
# Description: Whole blood (100 μl) was collected from the femoral vein of untreated athymic NMRI nude mice (HsdCpb:NMRI-Foxn1^nu; Harlan Laboratories Inc.), and respective animals were killed 2 h after intraperitoneal injection of substances. For the analysis of whole acetylation levels, mice were killed at half-life time of the inhibitors. Whole blood with heparin was added to RBC lysis buffer (diluted 1 : 10) (BioLegend, San Diego, CA, USA) at a ratio of 1 : 4. Next, red blood cell lysis was performed according to the manufacturer's instructions. PBMCs were lysed in SDS lysis buffer for western blot or processed for FACS analysis.
# Western blot analysis was performed as described previously.[15] For detection of phosphoproteins, PhosStop (Roche, Penzberg, Germany) was added to the lysis buffer. The following antibodies were used for detection: anti-HDAC8 (H-145) (polyclonal; Santa Cruz, Santa Cruz, CA, USA), anti-acetyl tubulin (clone 6-11B-1; Sigma), anti-acetyl-histone H4 (polyclonal; Upstate, Lake Placid, NY, USA), anti-acetyl-SMC3 (provided by Prof. K Shirahige, University of Tokyo, Tokyo, Japan), anti p21^waf1/cip1 (clone CP74; Merck), anti-Trk (C-14) (polyclonal; Santa Cruz), anti-neurofilament-M (polyclonal; Merck), anti-β-actin (clone AC-15; Sigma), anti-P-CREB (Ser133; Cell Signaling, Danvers, MA, USA), anti-CREB (48H2; Cell Signaling) and anti-GAPDH (clone 6C5; Merck).
# [12] = working concentrations: 40 μM Cpd2, 4 μM PCI-34051 and PCI-48000
# Chain of HDAC1 (Q13547 9-321 limits assumed): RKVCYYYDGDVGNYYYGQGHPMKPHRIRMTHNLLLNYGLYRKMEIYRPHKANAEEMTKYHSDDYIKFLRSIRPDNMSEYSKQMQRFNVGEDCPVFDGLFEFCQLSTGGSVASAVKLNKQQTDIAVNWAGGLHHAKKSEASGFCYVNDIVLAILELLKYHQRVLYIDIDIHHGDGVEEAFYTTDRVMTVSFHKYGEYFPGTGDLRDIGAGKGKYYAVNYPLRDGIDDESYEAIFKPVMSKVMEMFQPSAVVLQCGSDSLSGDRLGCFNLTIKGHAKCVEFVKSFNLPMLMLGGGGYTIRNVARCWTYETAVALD
# Chain of HDAC3 (O15379 3-316 limits assumed): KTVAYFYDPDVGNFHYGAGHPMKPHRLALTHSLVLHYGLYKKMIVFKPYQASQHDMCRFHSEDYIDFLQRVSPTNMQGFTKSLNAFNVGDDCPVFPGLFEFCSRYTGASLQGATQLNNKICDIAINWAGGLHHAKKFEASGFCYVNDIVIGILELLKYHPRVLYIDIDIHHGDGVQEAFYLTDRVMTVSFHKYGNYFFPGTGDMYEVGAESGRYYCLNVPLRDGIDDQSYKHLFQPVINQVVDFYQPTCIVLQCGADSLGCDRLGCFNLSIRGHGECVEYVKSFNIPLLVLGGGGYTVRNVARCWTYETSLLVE
# Chain of HDAC3 (Q9Y618 395-489 partner limits assumed): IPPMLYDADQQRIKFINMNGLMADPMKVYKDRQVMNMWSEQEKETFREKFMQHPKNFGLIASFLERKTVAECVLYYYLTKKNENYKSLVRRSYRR
smiles,measurement,setting,value
"O=C(NO)c1cccc2ccccc12 [Cpd2, 1-naphthohydroxamic acid]",IC50,[1],> 75.6 µM
same,IC50,[2],> 75.6 µM
same,IC50,[3],> 75.6 µM
same,MTD,[4],50 mg/kg/day
same,Dose-limiting toxicities (DLTs),"[5]; intraperitoneal, increasing doses 40 up to 400 mg/kg per day",weight loss and signs of liver toxicity
same,body weight and blood parameters at MTD,"[5]; mouse, in vivo",neither body weight (Figure 2a) nor blood parameters were critically changed
same,Hematocrit,[6]; normal range 0.3–0.4,0.4±0.01 l/l
same,Uric acid,[6]; normal range 0.4–3.2,0.9 ± 1.0 mg/dL
same,Leukocytes,[6]; normal range 1.8–6.1,4.4 ± 1.8 nL⁻¹
same,Calcium,[6]; normal range 2.1–2.4,2.4 ± 0.4 mmol/L
same,Potassium,[6]; normal range 3.8–6.4,6.9 ± 2.2 mmol/L
same,Erythrocytes,[6]; normal range 5.5–8.2,7.6 ± 0.3 pL⁻¹
same,Hemoglobin,[6]; normal range 9.4–12.7,12.4 ± 0.7 g/dL
same,Urea,[6]; normal range 17.4–38.3,23.5 ± 6.4 mg/dL
same,AP,[6]; normal range 62.5–117.6,123.8±35.8 U/l
same,Chloride,[6]; normal range 97.3–109.7,99.9 ± 2.2 mmol/L
same,Sodium,[6]; normal range 123.4–135.7,136.8 ± 5.3 mmol/L
same,Glucose,[6]; normal range 176.8–238.6,187.8 ± 39.1 mg/dL
same,Thrombocytes,[6]; normal range 242.5–806.8,682.0 ± 151.1 nL⁻¹
same,GGT,[6]; normal range −1.9 to 1.0,−2.0±1.0 U/l
same,half-life,"[7]; NMRI Foxn1 nude, mouse, plasma, ip, 100 mg/kg, intraperitoneal 100 mg/kg, NMRI Foxn1 nude mice, read-out: half-life in blood plasma",~15 min
same,plasma peak concentration,"[7]; intraperitoneal, single dose of 100 mg/kg, mice",~ 30 μM
same,whole acetyl-lysine mean fluorescent values (Blank-corrected),"[8]; 20µM, solvent 34.4, second experiment",56.9
same,whole acetyl-lysine mean fluorescent values (Blank-corrected),"[8]; 40µM, solvent 24.7, IMR-32 cells, 24 h per Figure 1c",36.9
same,"whole acetyl-lysine mean fluorescent values (Blank-corrected), PBMCs",[9],39.2
same,tubulin acetylation (HDAC6 off-target activity),"[10]; increasing concentrations far above IC50 values (up to 200 μM Cpd2, 100 μM PCI-34051)",induced tubulin acetylation
same,SMC3 acetylation (HDAC8 substrate),[10]; [12],increase in acetylation level
same,histone 4 acetylation (HDAC1-3 substrate),[10]; [12],absence of HDAC1-3 substrate acetylation
same,tubulin acetylation (HDAC6 substrate),[10]; [12],absence of HDAC6 substrate acetylation
same,tubulin and histone 4 acetylation in PBMC,[11],absence of tubulin acetylation and absence of histone 4 acetylation

# From article PMC4669789, “Selective inhibition of HDAC8 decreases neuroblastoma growth in vitro and in vivo and enhances retinoic acid-mediated differentiation” (Cell Death & Disease, 2015)
